Experimental data published in article PMC5684143, “New melanocortin-like peptide of E. coli can suppress inflammation via the mammalian melanocortin-1 receptor (MC1R): possible endocrine-like function for microbes of the gut” (NPJ Biofilms and Microbiomes, 2017).

Columns and labels:
Balb/C mice [1] = experiment: Lethal LPS endotoxin sepsis in mice, survival; format: in vivo; conditions: two experiments pooled; peptide i.p. twice daily for 3 days; saline 0 of 19; alpha-MSH 5 of 20, MECO-1 15 of 30
Excerpt: Kaplan–Meier analysis was used to determine statistical significance of the differences in survival of mice. p ≦ 0.05 was considered significant. Values in the figures were expressed as mean(±)S.E.M. of two or three independent experiments, where each experimental point was derived from duplicates or triplicates. Student’s two-tailed t-test was used to compare the means between groups. p-value of 0.05 or less was considered statistically significant. The design (including sample size) of experiments in Figs. 2–7, and Table 1 followed closely the design of previous experiments by us and others. The results of prior experiments in our laboratory (both in vitro experiments and animal experiments) were used to decide sample size for each of the experiments shown.[37]–[41]
Fig. 6 MECO-1 rescues mice from lethal sepsis. a Endotoxin. Balb/C mice (males) were injected once intraperitoneally with LPS at a dose estimated to be an LD75. Immediately thereafter, the first doses of MECO-1 at 0.5 mg/kg (low dose), MECO-1 at 5 mg/kg (high dose), alpha-MSH at 5 mg/kg (high dose) or saline alone were administered intraperitoneally. Peptide or saline were given twice daily for 3 days for a total of six doses. Ten mice were in each group. Survival was monitored daily for 2 weeks. […] Animals were monitored for survival for 14 days. […]

Balb/C mice [2] = experiment: CLP sepsis, survival and serum cytokines at 40 h (protocol B); format: in vivo; conditions: one dose 5 mg/kg i.p. at 24 h
Experimental: In vivo studies were performed in accordance with National Institutes of Health guidelines and with the approval of the North Shore-Long Island Jewish Health System’s Institutional Animal Care and Use Committee (IACUC). In mice, polymicrobial sepsis was induced by surgical ligation and perforation of the cecum, a widely used technique known as CLP. Briefly, male BALB/c mice (7–8 weeks old, 20–25 g) were anesthetized with a mixture of ketamine (100 mg/kg) and xylazine (8 mg/kg) intramuscularly, and a 15 mm midline incision was made to expose the cecum. After ligation of the cecum with a 6.0 silk suture below the junction of the ileo–cecal valve, the ligated cecal stump was perforated once with a 22-gauge needle. The cecum was then gently squeezed to extrude a small amount of feces through the perforation site. The cecum was restored to its normal intra-abdominal position, and the laparotomy was closed with 6.0 silk sutures. Immediately after CLP surgery, all animals were resuscitated with normal saline solution (subcutaneously 20 ml/kg body weight), and given a single dose of antibiotics (primaxin 0.5 mg/kg). In sham operated animals, the cecum was temporarily ligated, but the bowel was not punctured; these animals also received antibiotic treatment and resuscitation fluid. […] Survival was monitored twice daily for 2 weeks, at which time survivors were killed (CO2 asphyxia). […] Survival was monitored twice daily after surgery. […]
The levels of HMGB1 in the culture medium or murine serum were measured by western immunoblotting as previously described.[30] […] The relative band intensity was quantified by using the NIH image 1.59 software. The levels of HMGB1 (expressed as % maximum effect) were calculated with reference to standard curves generated with purified rHMGB1 and expressed as mean ± SEM of four experiments.
Concentrations of TNF and IL-6 were each determined using a commercially available enzyme-linked immunosorbent assay (ELISA) kit (R&D System Inc.) as previously described.[34] The levels of TNF or IL-6 were calculated with reference to standard curves. […]

Substance: alpha-melanocyte-stimulating hormone [alpha-MSH]
- mice rescued from lethal dose of LPS endotoxin (Balb/C mice [1]): 25%
- serum TNF and IL-6 in survivors at 40 h after CLP (Balb/C mice [2]; ELISA, p < 0.05 vs CLP alone): significantly muted responses
- animals surviving to 40 h after CLP (Balb/C mice [2]; n = 10, saline four out of nine): Six of ten
- animals with elevated serum HMGB1 at 40 h after CLP (Balb/C mice [2]; western blot, saline three of four): none
